Experimental findings from US20090155236A1, “Peptide sequence for modulation of delta protein kinase c” (NATIONAL INSTITUES OF HEALTH (NIH), U.S. DEPT OF HEALTH AND …, priority 2004, published 2009) are described below.

Positions of bridges follow the written chain, without caps; N, C: chain ends. No end group written: not given here.

Experiment [1] concerns the target T1, delta PKC (Homo sapiens, UniProt Q05655).
T1 construct: purchased Panvera LLC, now Invitrogen Corporation
As to the kind of experiment: In vitro kinase assay, histone phosphorylation by delta PKC. Type of experiment: biochemical. On the procedure:
In another study, the ability of annexin V to increase the catalytic activity of delta PKC in vitro was evaluated. Full-length, recombinant delta PKC (SEQ ID NO:3) and epsilon PKC (SEQ ID NO:6) were separately incubated in the presence of kinase buffer, ATP, or histone, as described in Example 3. Activators of PKC, phosphatidylserine (PS) and diacylglycerol (DAG), were added along with annexin V, JTV-519, a 1,4 benzothiazepine derivative that activates delta PKC (Inagaki, K. et al., Circulation, 101:797 (2000)), or a mixture of annexin V and JTV-519.
200 ng of pure delta PKC or epsilon PKC (Panvera LLC, now Invitrogen Corporation, Carlsbad, Calif.) were incubated in 100 μL kinase buffer (20 mM Tris pH 7.4, 50 mM MgCl2, 0.3 μCi/reaction [γ-^32P]ATP (Amersham Biosciences), 9 μM/reaction ATP (Sigma), 30 μg/reaction myelin basic protein or histone A1 (Sigma); 100 μM lipid vesicle mixture (90% phosphatidylserine (PS): 10% diacylglycerol (DAG)), 1 mM CaCl2, 1 μM JTV519, and/or 20 ng of Annexin V/reaction were added, where applicable. The kinase reaction was stopped by the addition of SDS sample buffer, and extent of histone phosphorylation assessed after separation on 15% SDS-PAGE and transfer onto nitrocellulose membrane by autoradiography.

In experiment [2] the target is T2, annexin V and delta PKC interaction (Homo sapiens, UniProt Q05655).
T2 construct: endogenous in cells; host or cells: cardiomyocytes
T2 sequence (Q05655 whole entry): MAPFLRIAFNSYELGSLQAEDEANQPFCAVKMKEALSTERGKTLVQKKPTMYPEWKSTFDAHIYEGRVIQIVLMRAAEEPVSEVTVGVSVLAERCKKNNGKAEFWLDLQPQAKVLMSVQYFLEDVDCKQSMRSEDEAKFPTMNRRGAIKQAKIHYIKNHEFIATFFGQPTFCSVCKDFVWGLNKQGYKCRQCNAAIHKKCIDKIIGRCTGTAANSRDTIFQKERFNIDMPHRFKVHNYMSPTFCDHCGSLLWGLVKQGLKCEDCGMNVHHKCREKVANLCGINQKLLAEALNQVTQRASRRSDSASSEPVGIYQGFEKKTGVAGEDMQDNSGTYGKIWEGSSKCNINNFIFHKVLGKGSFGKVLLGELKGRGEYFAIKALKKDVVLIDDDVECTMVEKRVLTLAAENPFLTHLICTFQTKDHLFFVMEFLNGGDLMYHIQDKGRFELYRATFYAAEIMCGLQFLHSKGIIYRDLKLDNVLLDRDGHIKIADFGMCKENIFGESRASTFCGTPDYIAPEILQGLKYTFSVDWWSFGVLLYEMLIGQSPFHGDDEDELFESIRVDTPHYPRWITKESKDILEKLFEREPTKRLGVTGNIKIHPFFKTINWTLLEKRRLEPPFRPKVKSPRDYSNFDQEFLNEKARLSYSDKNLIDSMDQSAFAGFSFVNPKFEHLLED
Nature of the experiment: Cross-linking immuno-precipitation of delta PKC probed with anti-annexin V in cardiac myocytes. The experiment is classed as cell-based. To be noted: cardiac myocytes stimulated with the agent, FIG. 5. On the procedure:
Example 4 describes a study where cardiac myocytes were stimulated with a selected agent and then immuno-precipitated with anti-delta PKC after cross-linking. The cell lysates were then probed with anti-annexin V and visualized with ECL Western blotting. […] The stimulation agent was applied to the cells for times of between 30 seconds to 20 minutes, prior to lysing.
Cardiomyocytes were treated with phorbol 12-myristate 13-acetate (PMA; 10 nM), hydrogen peroxide (H2O2; 5 mM), JTV-519, or delta V1-1 peptide (1 μM) and JTV-519 (1 μM), for times of between 30 seconds to 5 minutes. After the lapsed time, the cells were washed with cold PBS, and homogenized on ice with trituration in homogenization buffer (20 mM Tris pH 7.4, 2 mM EDTA, 10 mM EGTA, 0.25M sucrose, 12 mM O-mercaptoethanol, and protease inhibitor cocktail (Sigma), 0.1% formaldehyde. After 30 min at 4° C., the lysates were quenched with 0.14M glycine for 20 min at 4° C., and samples spun at 14K rpm at 4° C. The supernatant was incubated with 1 μg anti-delta PKC antibody (Santa Cruz Biotechnology, Inc., Santa Cruz, Calif.) for 1 hour, then with proteinG beads (Invitrogen Corporation) for 3 hours at 4° C. The beads where then washed with wash buffer (20 mM Tris pH 7.5, 2 mM EDTA, 100 mM NaCl, 12 mM β-mercaptoethanol, 0.1% Triton), and separated on 7.5% SDS-PAGE, transferred to nitrocellulose, and probed with anti-annexin V (Santa Cruz Biotechnology, Inc., Santa Cruz, Calif.), followed by visualization by ECL Western blotting.

Experiment [3] concerns the target T3, delta PKC/annexin V interaction (Cricetulus griseus, UniProt A0A8C2N0P5).
T3 construct: endogenous in cells; host or cells: CHO cells
As to the kind of experiment: Cross-linking co-immunoprecipitation of annexin V and delta PKC in CHO cells. Type of experiment: cell-based. On the procedure:
A similar study was conducted to further evaluate the in vitro, intracellular interactions of delta PKC and annexin V. Cellular interactions of delta PKC/annexin V interaction in CHO cells were stabilized with a cross-linking agent, after stimulation with 10 nM PMA. The complexes formed with delta PKC were then immuno-precipitated and tested for the presence of annexin V. The SDS-PAGE gel is shown in FIG. 6A and a corresponding graph quantifying percent association of annexin V and delta PKC as a function of time is shown in FIG. 6B. […] The interaction is relatively short-lived, and the proteins disassociated after 1 minute of stimulation.
The effect of JTV-519, an activator of delta PKC, on the association of annexin V and delta PKC was also evaluated in this study. Cells were treated with JTV-519, and the association of annexin V and delta PKC was examined using the co-immunoprecipitation procedure described above. […] PMA caused the disassociation of the JTV-induced complex at 30 seconds, the time of maximal PMA-induced association. […] Whereas the cytosolic fraction of the cells contained a steady low level of the complex, the majority of the complex was found in the particulate fraction of the cells, and disappearance from the particulate fraction followed the same time-course as observed in whole cell lysates (compare FIG. 6D bottom panel with FIG. 6B).

Experiment [4] concerns the target T4, delta PKC (Cricetulus griseus, UniProt A0A8C2N0P5).
T4 construct: endogenous in cells; host or cells: CHO cells
As to the kind of experiment: Translocation of delta PKC to the membrane fraction of CHO cells upon PMA stimulation. The experiment is classed as cell-based. To be noted: CHO cells pretreated 1 μM for 15 minutes, PMA 10 nM for 5 minutes, FIGS. 8A-8B. On the procedure: The ability of the annexin V peptide to block the intracellular interaction of delta PKC and annexin V was illustrated in the following study. The annexin V peptide (SEQ ID NO: 1) was conjugated to a TAT47-57 carrier peptide (SEQ ID NO:26) through an N-terminal Cys-Cys bond, as previously described (Chen, L. et al., Proc. Natl. Acad. Sci. USA, 98:11114-9 ((2001)). This peptide, identified herein as SEQ ID NO:29 and referred to as TAT-AnxV peptide, was used to pretreat (1 μM for 15 minutes) CHO cells prior to stimulation with PMA (10 nM for 5 minutes). For comparison, the annexin V peptide sequence was modified at the Arg (R) residue with a Glu (E) residue, to form a peptide having the sequence LQANEDPD, identified herein as SEQ ID NO:30. Substitution of E for R confers a charge difference between annexin V and delta PKC. This peptide was also attached to a TAT carrier peptide via N-terminal modification with a Cys-Cys bond. The conjugate is referred to herein as TAT-AnxV(R→E) (SEQ ID NO:31) and is denoted in some figures as “EpAnxV.” Cells were similarly pretreated with TAT-AnxV(R→E), prior to stimulation with PMA. As controls, some cells were left untreated and other cells were exposed only to PMA. […]

The subject of the next experiment is isolated rat hearts. As to the kind of experiment: Ex vivo ischemia/reperfusion in isolated rat hearts. To be noted: for infarct size: treated 10 minutes prior to 30 minutes ischemia, 60 minutes reperfusion, FIG. 9A. On the procedure: The physiologic impact of disruption of the delta PKC-annexin V complex was evaluated in an ex vivo ischemia/reperfusion study using the annexin V peptide, TAT-AnxV, and its mutant, TAT-AnxV(R→E). As described in Example 7, isolated rat hearts were treated with TAT-AnxV or TAT-AnxV(R→E) for 10 minutes prior to induction of an ischemic episode. The ischemic episode lasted for 30 minutes, at which time flow to the heart was returned for 60 minutes (reperfusion). After the reperfusion period, cardiac effluent was collected and analyzed for creatine phosphokinase (CPK). The hearts were stained and visually inspected for live and dead tissue. Infarct size was measured by taking the average of the dead (white) tissue on both sides of the tissue slice.
A similar study was conducted, except rather than pretreating the isolated hearts with the annexin V peptide, the peptide was administered after the ischemic event and during the initial 10 minutes of the reperfusion period. Hearts were similarly treated with the mutant peptide, TAT-AnxV(R→E).
Rats were anesthetized and their hearts were rapidly removed and cannulated via the aorta for retrograde perfusion (Colbert, M. et al., J. Clin. Invest., 100:1958 (1997)). The hearts were left untreated, or were pretreated with the annexin V peptide, conjugated to TAT, (TAT-AnxV, SEQ ID NO:29) or with its mutant, TAT-AnxV(R→E) (SEQ ID NO:31), for 10 minutes prior to a 30 minutes of ischemia. Ischemia was induced by interrupting flow for 30 minutes and then reestablishing flow for 60 minutes (reperfusion). Cardiac effluent was collected for 15 minutes after reperfusion and assayed for creatine phosphokinase (CPK) using a Sigma kit. Hearts were stained with 2,3,5-triphenyltetrazolium chloride ([…]) to visualize live tissue (red) and dead tissue (white), and infarct size was measured by taking the average of the white area on both sides of the tissue slice (n=3, p<0.05). Results are shown in FIGS. 9A-9B and FIGS. 10A-10B.

T1 sequence (Q05655 whole entry): as above
T3 sequence (A0A8C2N0P5 1-676): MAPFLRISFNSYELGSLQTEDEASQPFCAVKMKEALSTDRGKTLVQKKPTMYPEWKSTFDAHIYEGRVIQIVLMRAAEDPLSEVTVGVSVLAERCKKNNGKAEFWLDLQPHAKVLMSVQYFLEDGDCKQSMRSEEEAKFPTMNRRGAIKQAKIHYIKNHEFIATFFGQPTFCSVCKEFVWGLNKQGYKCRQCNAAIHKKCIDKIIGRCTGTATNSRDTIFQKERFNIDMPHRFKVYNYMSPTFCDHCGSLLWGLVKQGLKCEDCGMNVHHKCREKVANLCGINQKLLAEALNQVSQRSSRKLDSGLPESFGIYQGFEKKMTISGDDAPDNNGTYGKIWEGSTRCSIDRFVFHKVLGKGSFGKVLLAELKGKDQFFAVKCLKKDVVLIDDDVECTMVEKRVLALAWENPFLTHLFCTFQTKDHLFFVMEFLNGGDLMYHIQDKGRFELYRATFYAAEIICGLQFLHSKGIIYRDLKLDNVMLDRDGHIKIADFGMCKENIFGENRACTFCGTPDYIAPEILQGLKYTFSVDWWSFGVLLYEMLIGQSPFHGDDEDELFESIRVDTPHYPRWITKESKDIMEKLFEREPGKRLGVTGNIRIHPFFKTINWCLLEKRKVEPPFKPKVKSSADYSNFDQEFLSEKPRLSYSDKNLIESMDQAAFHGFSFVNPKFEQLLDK
T3 sequence (G3I5A4 1-321 partner): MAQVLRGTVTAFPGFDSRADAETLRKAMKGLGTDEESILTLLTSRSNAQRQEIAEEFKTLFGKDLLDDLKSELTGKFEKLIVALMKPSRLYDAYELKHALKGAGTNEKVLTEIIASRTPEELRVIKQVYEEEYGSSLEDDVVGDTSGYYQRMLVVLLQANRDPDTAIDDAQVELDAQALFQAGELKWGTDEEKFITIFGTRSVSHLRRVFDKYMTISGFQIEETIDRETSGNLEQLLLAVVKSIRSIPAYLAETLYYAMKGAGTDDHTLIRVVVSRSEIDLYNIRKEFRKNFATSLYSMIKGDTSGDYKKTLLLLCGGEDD
T4 sequence (A0A8C2N0P5 1-676): as the sequence (A0A8C2N0P5 1-676) above

`COc1ccc2c(c1)CN(C(=O)CCN1CCC(Cc3ccccc3)CC1)CCS2` [JTV-519]: the “catalytic activity of delta PKC (histone phosphorylation)” value at delta PKC [1] (in the presence of PS/DAG, FIG. 4A) is recorded as “about the same extent as observed for delta PKC in the presence of PS/DAG alone”; on delta PKC [1] (in the presence of annexin V and PS/DAG, FIG. 4A Lane 5) it was “blocked the increased catalytic activity observed with annexin V”. For the same molecule, the “interaction of annexin V and delta PKC” value in experiment [2] is listed as “greatly enhanced”. Besides, the “association of annexin V and delta PKC” value in experiment [3] (basal conditions, FIGS. 6A-B) was “full association”. Further, the “cellular localization of the delta PKC-annexin V complex” value in experiment [3] (soluble versus particulate fraction, FIG. 6D) is given as “most of the δPKC-annexin V complex remained in the soluble fraction”.
Turning to “TAT-AnxV(R→E): conjugate of SEQ ID NO:30 joined to a TAT carrier peptide through an N-terminal cysteine-cysteine bond (YGRKKRRQRRRCCLQANEDPD; disulfide 12-13 (inferred))”, the “translocation of delta PKC to the cell membrane” value in the experiment with delta PKC [4] is “lost its inhibitory effect on delta PKC translocation”. Further, in the experiment with isolated rat hearts, the infarct size result is reported as “did not inhibit the delta PKC-induced damage”.
As to “TAT-AnxV: conjugate of SEQ ID NO:1 joined to a TAT carrier peptide through an N-terminal cysteine-cysteine bond (YGRKKRRQRRRCCLQANRDPD; disulfide 12-13 (inferred))”, in the experiment with delta PKC [4], the “translocation of delta PKC to the cell membrane” value is “blocked the translocation of delta PKC”. In addition, the infarct size entry in the experiment on isolated rat hearts is reported as “statistically significant decrease in infarct size”. In addition, the “creatine phosphokinase (CPK) released” value in the experiment with isolated rat hearts (treated 10 minutes prior to ischemia, FIG. 9B) is “reduced level of creatine phosphokinase”.
